These are literature values, as cited in patent US12597519B2, “Methods for characterizing and treating a cancer type using cancer images” (TESARO, INC., priority 2019, dated 2026).

For data set [1], the system named is platinum-sensitive relapsed ovarian cancer.
In data set [2] the test system is cancer cell lines silenced for BRCA-1 or BRCA-2, or carrying BRCA-1 or BRCA-2 mutations. To be noted: BRCA-defective cells.

Take `O=C(c1cc(Cc2n[nH]c(=O)c3ccccc23)ccc1F)N1CCN(C(=O)C2CC2)CC1` [olaparib, 4-[(3-{[4-(cyclopropylcarbonyl)piperazin-1-yl]carbonyl}-4-fluorophenyl)methyl]phthalazin-1(2H)-one]: the overall survival benefit entry in data set [1] (interim analysis, intent to treat populations) was “unlikely to translate into an overall survival benefit”. For the same compound, in data set [1] (planned analysis, BRCA mutation subset), the “outcome in subset of patients who had BRCA mutations” value is on record as “clear advantage”.

Turning to `Cc1ccc(S(=O)(=O)O)cc1.NC(=O)c1cccc2cn(-c3ccc([C@@H]4CCCNC4)cc3)nc12` [Niraparib, (3S)-3-[4-{7-(aminocarbonyl)-2H-indazol-2-yl}phenyl]piperidine], in data set [2], the “mechanism of antiproliferative activity” value was “cell cycle arrest in G2/M followed by apoptosis”.
